According to US20180127700A1, “Cell Culture Substrate for Rapid Release and Re-Plating” (priority 2015, published 2018):

Tested on: NIH/3T3 mouse embryonic fibroblast cells
Experiment: Tissue module release/detachment from shape-memory pNIPAAm polymer microbeams upon thermally initiated swelling
Type: cell-based
Parameters: tissue module detachment after microbeam swelling (in words): dose or concentration left out as unconfirmed
Conditions: for effect of treatment on tissue module detachment (in words): all strains tested, pNIPAAm microbeams
Description: NIH/3T3 mouse embryonic fibroblast cells were cultured in 10% NCS growth medium containing 1% antibiotics (10,000 units/ml penicillin and 10,000 μg/ml streptomycin stock solution) at 37° C. in a humidified atmosphere of 5% CO2. To prepare tissue modules, trypsinized fibroblasts were seeded onto the fabricated shape-memory polymer arrays at a density of 500-750 cells/mm^2 and cultured at 37° C. until confluence (24-48 h). Studies of release from low cell density (100 cells/mm^2) were cultured for 24 h.
Rapid release of tissue modules was induced by thermally initiated swelling of the shape-memory polymer beams. 2 ml of cold PBS (4-10° C.) was introduced (1 ml at a time) into the seeded dish containing 2.5 ml of 37° C. medium resulting in cooling to about 27° C. Cell release was monitored via time-lapse image acquisition on a microscope for at least 70 s.
The mode of cell release from shape-memory polymer surfaces was examined by separately treating seeded samples with agents that modulate metabolism, contractility or adhesion.
To investigate the effect of surface strain on attached cells, the concentration of the network crosslinker (MBAm) in the prepolymer solution was varied from 1 to 4% before MIMIC processing. The one-dimensional width-wise strain in each microbeam was calculated from phase contrast micrographs as follows: […]
where ε is the Cauchy strain, Wcollapsed is the width of the polymer beam in the collapsed state and Wswollen is the width of the polymer beam in the swollen state. Cell detachment was calculated as the percent of cells released from the microbeams within 3 min after thermal stimulation.

SMILES	cell release after initiating shape change (in words) (2 mM DTSSP for 30 min prior to release, within 5 min of initiating shape change)	effect of treatment on tissue module detachment (in words)	tissue module detachment after microbeam swelling (in words) (Y-27632 for 30 min prior to release, large strains (ε>0.25))
O=C(CCSSCCC(=O)ON1C(=O)CC(S(=O)(=O)O)C1=O)ON1C(=O)CC(S(=O)(=O)O)C1=O (stereo not shown) [DTSSP, 3,3′-dithiobissulfosuccinimidylpropionate]	significant cell release was not observed	prevented tissue module detachment	
C[C@@H](N)[C@H]1CC[C@H](C(=O)Nc2ccncc2)CC1 [Y-27632]		prevented tissue module detachment	primarily remained attached
